Source: patent US10245275B2 (ViiV HEALTHCARE UK (NO.4) LIMITED, priority 2014, dated 2019)
Like-named read-outs stand apart in the source and are kept apart here.

Key:
[1] = tested on: HIV-1 92UG029 (clade A virus); assay: HIV cell culture assay, 92UG029 Gag/Pr recombinant virus in MT-2 cells; type: cell-based
Method: MT-2 cells and 293T cells were obtained from the NIH AIDS Research and Reference Reagent Program. MT-2 cells were propagated in RPMI 1640 media supplemented with 10% heat-inactivated fetal bovine serum, […]. The 293T cells were propagated in DMEM media supplemented with 10% heat-inactivated fetal bovine serum (FBS), 100 units/mL penicillin G and 100 μg/mL streptomycin. The proviral DNA clone of NL4-3 was obtained from the NIH AIDS Research and Reference Reagent Program. A recombinant NL4-3 virus, in which a section of the nef gene from NL4-3 was replaced with the Renilla luciferase gene, was used as a reference virus. In addition, residue Gag P373 was converted to P373S. Briefly, the recombinant virus was prepared by transfection of the altered proviral clone of NL4-3. Transfections were performed in 293T cells using LipofectAMINE PLUS from Invitrogen (Carlsbad, Calif.), according to manufacturer's instruction. The virus was titered in MT-2 cells using luciferase enzyme activity as a marker. Luciferase was quantitated using the Dual Luciferase kit from Promega (Madison, Wis.), with modifications to the manufacturer's protocol. The diluted Passive Lysis solution was pre-mixed with the re-suspended Luciferase Assay Reagent and the re-suspended Stop & Glo Substrate (2:1:1 ratio). Fifty (50) μL of the mixture was added to each aspirated well on assay plates and luciferase activity was measured immediately on a Wallac TriLux (Perkin-Elmer). Antiviral activities of inhibitors toward the recombinant virus were quantified by measuring luciferase activity in cells infected for 4-5 days with NLRluc recombinants in the presence serial dilutions of the inhibitor.
Determination of EC50 for WT, EC50 for A364V, and EC50 for 92UG029 viruses:
HIV-1 92UG029 was obtained from the NIH (Catalog Number: 1650). This is a subtype A Gag and subtype A Env, X4 (SI) virus from Uganda. Reference: WHO Network for HIV Isolation and Characterization. AIDS Res Hum Retroviruses 10:1359, 1994. The Gag/Pr region from 92UG029 was used to replace that in an HIV-1 NL4-3 virus expressing Renilla luciferase gene.
Both recombinant viruses were used as described above in the HIV cell culture assay for the NL4-3 virus.

[2] = Rat PO pharmacokinetic study; type: in vivo; conditions: male, Sprague-Dawley, plasma, oral dose of 5 mg/kg, PEG-400/ethanol (90/10) solution, fasted rats
Method: Rat Pharmacokinetic Studies:
For the PO pharmacokinetic studies of the compounds in rats, the compounds were each dissolved in PEG-400/ethanol (90/10) as a solution.
Rat. Male Sprague-Dawley rats (300-350 g, Hilltop Lab Animals, Inc., Scottsdale, Pa.) with cannulas implanted in the jugular vein were used. The rats were fasted overnight in the PO pharmacokinetic studies. Blood samples of 0.3 mL were collected from the jugular vein in EDTA-containing microtainer tubes (Becton Dickinson, Franklin Lakes, N.J.), and centrifuged to separate plasma.
In the PO study of the tested compounds, the rats (n=3) received an oral dose of 5 mg/kg of the indicated compound. Serial blood samples were collected before dosing and 15, 30, 45, 60, 120, 240, 360, 480, and 1440 min after dosing.
Quantitation of Compounds in Plasma. Aliquots of plasma samples from rat, studies were prepared for analysis by precipitating plasma proteins with two volumes of acetonitrile containing an internal standard of a similar compound. The resulting supernates were separated from the precipitated proteins by centrifugation for 10 minutes and transferred to autosampler vials. Samples were either prepared manually, or with the use of the Tomtec automated liquid handler. An aliquot of 5 μL was injected for analysis.
The HPLC system consisted of two Shimadzu LC10AD pumps (Columbia, Md.), a Shimadzu SIL-HTC autosampler (Columbia, Md.), and a Hewlett Packard Series 1100 column compartment (Palo Alto, Calif.). The column was a YMC Pro C18 (2.0×50 mm, 3 μm particles, Waters Co., Milford, Mass.), maintained at 60° C. and a flow rate of 0.3 ml/min. The mobile phase consisted of 10 mM ammonium formate and 0.1% formic acid in water (A) and 100% 10 mM ammonium formate and 0.1% formic acid in methanol (B). The initial mobile phase composition was 95% A. After sample injection, the mobile phase was changed to 15% A/85% B over 2 minutes and held at that composition for an additional 1 minute. The mobile phase was then returned to initial conditions and the column re-equilibrated for 1 minute. Total analysis time was 4 minutes.
The HPLC was interfaced to a Micromass Quattro LC. Ultra high purity nitrogen was used as the nebulizing and desolvation gas at flow rates of 100 L/hr for nebulization and 1100 L/hr for desolvation. The desolvation temperature was 300° C. and the source temperature was 150° C. Data acquisition utilized selected reaction monitoring (SRM). Ions representing the (M+H)^+ species for the compound and the internal standard were selected in MS1 and collisionally dissociated with argon at a pressure of 2×10^−3 torr to form specific product ions which were subsequently monitored by MS2.

[3] = tested on: HIV-1 NL4-3 gag A364V virus; assay: microbe, parasite or virus in culture; type: cell-based
In short: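 Recombinant NL4-3 reporter virus with Renilla luciferase replacing part of nef, made by transfection of 293T cells. MT-2 cells infected for 4-5 days with serial inhibitor dilutions; antiviral activity quantified by luciferase activity.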

[4] = tested on: WT (wild-type HIV virus; recombinant NL4-3 virus); assay: microbe, parasite or virus in culture; type: cell-based, HIV-1
In short: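 MT-2 cells infected 4-5 days with NL4-3 carrying Renilla luciferase in place of part of nef (Gag P373S), virus made by 293T transfection, with serial inhibitor dilutions. Antiviral activity read as luciferase activity by a modified dual-luciferase read-out.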

[5] = Human immunodeficiency virus 1, MT2, read-out: 92UG029A Clade T332S/V362I/V370A (EC50, uM)
[6] = Human immunodeficiency virus 1, MT2, read-out: EC50 92UG029 (μM)
[7] = Human immunodeficiency virus 1, NL43, MT2, read-out: A364V (EC50, uM), Table 1 regular screen, MT-2 cells, luciferase readout
[8] = Human immunodeficiency virus 1, NL43, MT2, read-out: EC50 A364V (μM), Table 2, 3× higher viral input
[9] = Human immunodeficiency virus 1, NL43, MT2, read-out: EC50 WT (μM), Table 2, 3× higher viral input
[10] = Human immunodeficiency virus 1, NL43, MT2, read-out: WT (EC50, uM), Table 1 regular screen, MT-2 cells, luciferase readout
[11] = Human immunodeficiency virus 1, NL43, MT2, read-out: A364V (EC50, uM), Table 1 regular screen, class symbol
[12] = Human immunodeficiency virus 1, NL43, MT2, read-out: WT (EC50, uM), Table 1 regular screen, class symbol

| Compound | EC50 [1, 5] | EC50 [1, 6] | AUC [2] | EC50 [3, 7] | EC50 [3, 8] | EC50 [4, 9] | EC50 [4, 10] | fold less potent than Compound 2 vs 92UG029 ([1]; relative to Compound 2) | fold less potent than Compound 2 vs A364V ([3]; relative to Compound 2) | potency vs. WT (in words) ([4]; comparative data) | EC50 [3, 11] | EC50 [4, 12] |
| --- | --- | --- | --- | --- | --- | --- | --- | --- | --- | --- | --- | --- |
| C=C(C)[C@@H]1CC[C@]2(NCCN3CCS(=O)(=O)CC3)CC[C@]3(C)[C@H](CC[C@@H]4[C@@]5(C)CC=C(C6=CCC(CF)(C(=O)O)CC6)C(C)(C)[C@@H]5CC[C@]43C)[C@@H]12 (mixture of isomers) [Example 2, 4-((1R,3aS,5aR,5bR,7aR,11aS,11bR,13aR,13bR)-3a-((2-(1,1-dioxidothiomorpholino)ethyl)amino)-5a,5b,8,8,11a-pentamethyl-1-(prop-1-en-2-yl)-2,3,3a,4,5,5a,5b,6,7,7a,8,11,11a,11b,12,13,13a,13b-octadecahydro-1H-cyclopenta[a]chrysen-9-yl)-1-(fluoromethyl)cyclohex-3-enecarboxylic acid] | 0.00461 µM | 0.005 µM | 7.93 µM·h | 0.0847 µM | 0.21 µM | 0.002 µM | 0.00129 µM | – | – | – | – | – |
| C=C(C)[C@@H]1CC[C@]2(NCCN3CCS(=O)(=O)CC3)CC[C@]3(C)[C@H](CC[C@@H]4[C@@]5(C)CC=C(C6=CCC(C)(C(=O)O)CC6)C(C)(C)[C@@H]5CC[C@]43C)[C@@H]12 (stereo partly drawn) [Compound B, reference compound] | – | 0.03 µM | 6.46 µM·h | – | 1.3 µM | 0.002 µM | – | 6 fold | 6 fold | comparable potency | – | – |
| C=C(C)[C@@H]1CC[C@]2(NCCN3CCC(S(C)(=O)=O)CC3)CC[C@]3(C)[C@H](CC[C@@H]4[C@@]5(C)CC=C(C6=CC[C@@](CF)(C(=O)O)CC6)C(C)(C)[C@@H]5CC[C@]43C)[C@@H]12 [Example 1b, (R)-1-(fluoromethyl)-4-((1R,3aS,5aR,5bR,7aR,11aS,11bR,13aR,13bR)-5a,5b, 8,8,11a-pentamethyl-3a-((2-(4-(methylsulfonyl)piperidin-1-yl)ethyl)amino)-1-(prop-1-en-2-yl)-2,3,3a,4,5,5a,5b,6,7,7a,8,11,11a,11 b,12,13,13a,13b-octadecahydro-1H-cyclopenta[a]chrysen-9-yl)cyclohex-3-enecarboxylic acid] | 0.00348 µM | – | – | 0.176 µM | – | – | 0.00193 µM | – | – | – | – | – |
| C=C(C)[C@@H]1CC[C@]2(NCCC3(O)COC3)CC[C@]3(C)[C@H](CC[C@@H]4[C@@]5(C)CC=C(C6=CC[C@@](CF)(C(=O)O)CC6)C(C)(C)[C@@H]5CC[C@]43C)[C@@H]12 [Example 2-11, (R)-1-(fluoromethyl)-4-((1R,3aS,5aR,5bR,7aR,11aS,11bR,13aR,13bR)-3a-((2-(3-hydroxyoxetan-3-yl)ethyl)amino)-5a,5b, 8,8,11a-pentamethyl-1-(prop-1-en-2-yl)-2,3,3a,4,5,5a,5b,6,7,7a,8,11,11a,11b,12,13,13a,13b-octadecahydro-1H-cyclopenta[a]chrysen-9-yl)cyclohex-3-enecarboxylic acid] | 0.0153 µM | – | – | – | – | – | – | – | – | – | > 0.05 µM | < 0.05 µM |
| C=C(C)[C@@H]1CC[C@]2(NCC[C@]3(O)CC[C@](C)(O)CC3)CC[C@]3(C)[C@H](CC[C@@H]4[C@@]5(C)CC=C(C6=CC[C@@](CF)(C(=O)O)CC6)C(C)(C)[C@@H]5CC[C@]43C)[C@@H]12 [Example 2-17, (R)-4-((1R,3aS,5aR,5bR,7aR,11aS,11bR,13aR,13bR)-3a-((2-((trans)-1,4-dihydroxy-4-methylcyclohexyl)ethyl)amino)-5a,5b,8,8,11a-pentamethyl-1-(prop-1-en-2-yl)-2,3,3a,4,5,5a,5b,6,7,7a,8,11,11a,11b,12,13,13a,13b-octadecahydro-1H-cyclopenta[a]chrysen-9-yl)-1-(fluoromethyl)cyclohex-3-enecarboxylic acid] | 0.00937 µM | – | – | – | – | – | – | – | – | – | < 0.05 µM | < 0.05 µM |
| C=C(C)[C@@H]1CC[C@]2(NCC[C@]3(O)CC[C@@H](S(C)(=O)=O)CC3)CC[C@]3(C)[C@H](CC[C@@H]4[C@@]5(C)CC=C(C6=CC[C@@](CF)(C(=O)O)CC6)C(C)(C)[C@@H]5CC[C@]43C)[C@@H]12 [Example 2-20, (R)-1-(fluoromethyl)-4-((1R,3aS,5aR,5bR,7aR,11aS,11bR,13aR,13bR)-3a-((2-((cis)-1-hydroxy-4-(methylsulfonyl)cyclohexyl)ethyl)amino)-5a,5b,8,8,11a-pentamethyl-1-(prop-1-en-2-yl)-2,3,3a,4,5,5a,5b,6,7,7a,8,11,11a,11 b,12,13,13a,13b-octadecahydro-1H-cyclopenta[a]chrysen-9-yl)cyclohex-3-enecarboxylic acid] | < 0.05 µM | – | – | – | – | – | – | – | – | – | > 0.05 µM | < 0.05 µM |
| C=C(C)[C@@H]1CC[C@]2(NCCN3CCS(=O)(=O)CC3)CC[C@]3(C)[C@H](CC[C@@H]4[C@@]5(C)CC=C(C6=CC[C@](CF)(C(=O)O)CC6)C(C)(C)[C@@H]5CC[C@]43C)[C@@H]12 [Example 2a, (S)-4-((1R,3aS,5aR,5bR,7aR,11aS,11bR,13aR,13bR)-3a-((2-(1,1-dioxidothiomorpholino)ethyl)amino)-5a,5b, 8,8,11a-pentamethyl-1-(prop-1-en-2-yl)-2,3,3a,4,5,5a,5b,6,7,7a,8,11,11a,11b,12,13,13a,13b-octadecahydro-1H-cyclopenta[a]chrysen-9-yl)-1-(fluoromethyl)cyclohex-3-enecarboxylic acid] | 0.00706 µM | 0.02 µM | 7.03 µM·h | 0.16 µM | 0.78 µM | 0.002 µM | 0.00198 µM | – | – | – | – | – |
